According to patent US20150353495A1 (PORTOLA PHARMACEUTICALS, INC., priority 2010, published 2015):

Legend:
Assay type in all cases: biochemical
[1] = target: T1, JAK1 (Homo sapiens, UniProt P23458); experiment: Z'-LYTE kinase assay JAK1
T1 construct: 5 μl of catalytic domain recombinant Kinase enzyme+Tyr peptide substrate (Invitrogen, CA); purchased Invitrogen
Summary of the method: (§1)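 In duplicate wells, each test molecule (1% final DMSO) is incubated with recombinant kinase catalytic domain, Tyr6 peptide substrate and ATP for one hour at room temperature; a site-specific protease is then added for another hour before fluorescence reading.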

[2] = target: T2, JAK3 (Homo sapiens, UniProt P52333); experiment: Z'-LYTE kinase assay JAK3
T2 construct: 5 μl of catalytic domain recombinant Kinase enzyme+Tyr peptide substrate (Invitrogen, CA); purchased Invitrogen
Summary of the method: as §1

[3] = target: T3, JAK2 (Homo sapiens, UniProt O60674); experiment: Z'-LYTE kinase assay JAK2
T3 construct: 5 μl of catalytic domain recombinant Kinase enzyme+Tyr peptide substrate (Invitrogen, CA); purchased Invitrogen
Summary of the method: as §1

T3 sequence (O60674 849-1124 limits assumed): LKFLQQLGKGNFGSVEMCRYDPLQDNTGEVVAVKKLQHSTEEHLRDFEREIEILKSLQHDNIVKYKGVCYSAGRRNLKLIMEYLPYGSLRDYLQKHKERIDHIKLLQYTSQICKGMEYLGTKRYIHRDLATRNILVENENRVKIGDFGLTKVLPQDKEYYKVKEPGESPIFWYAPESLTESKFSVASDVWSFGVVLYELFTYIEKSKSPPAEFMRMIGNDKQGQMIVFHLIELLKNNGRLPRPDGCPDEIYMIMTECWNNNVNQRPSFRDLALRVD
T2 sequence (P52333 822-1111 limits assumed): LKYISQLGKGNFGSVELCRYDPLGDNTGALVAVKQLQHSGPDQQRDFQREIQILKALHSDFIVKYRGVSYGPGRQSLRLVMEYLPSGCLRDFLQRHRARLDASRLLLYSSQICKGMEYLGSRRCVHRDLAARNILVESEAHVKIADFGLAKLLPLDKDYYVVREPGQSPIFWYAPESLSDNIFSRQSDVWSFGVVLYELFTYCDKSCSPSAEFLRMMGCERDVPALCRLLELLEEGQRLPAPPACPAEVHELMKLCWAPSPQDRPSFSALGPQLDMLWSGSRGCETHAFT
T1 sequence (P23458 875-1153 limits assumed): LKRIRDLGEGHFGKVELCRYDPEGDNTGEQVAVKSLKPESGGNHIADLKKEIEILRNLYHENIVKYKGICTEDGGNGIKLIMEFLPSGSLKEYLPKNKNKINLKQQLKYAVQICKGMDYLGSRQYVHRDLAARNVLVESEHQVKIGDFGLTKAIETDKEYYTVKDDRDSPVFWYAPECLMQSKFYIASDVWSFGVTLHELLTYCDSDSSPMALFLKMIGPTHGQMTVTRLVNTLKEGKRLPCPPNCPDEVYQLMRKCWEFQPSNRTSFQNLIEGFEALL

SMILES | IC50 [1] [nM] | IC50 [2] [nM] | IC50 [3] [nM]
COCC(=O)N1CCC[C@H](CNc2cc(Nc3ccc(C(=O)N(C)C)cc3)ncc2C(N)=O)C1 [Example 266, (R)-6-(4-(dimethylcarbamoyl)phenylamino)-4-((1-(2-methoxyacetyl)piperidin-3-yl)methylamino)nicotinamide] | > 1000 | 10 to 100 | > 1000
C[C@H](Nc1cc(Nc2ccc(C3CCOCC3)cc2)ncc1C(N)=O)C(C)(C)C [Example 167, (S)-4-(3,3-dimethylbutan-2-ylamino)-6-(4-(tetrahydro-2H-pyran-4-yl)phenylamino)nicotinamide] | > 1000 | 100 to 1000 | > 1000
Cc1cc(Nc2cc(NCc3cccc(F)c3F)c(C(N)=O)cn2)ccc1C(=O)N1CCCC1 [Example 456, 4-(2,3-difluorobenzylamino)-6-(3-methyl-4-(pyrrolidine-1-carbonyl)phenylamino)nicotinamide] | 100 to 1000 | < 1 | 10 to 100
COc1ccc(Nc2cc(Nc3ccc(C)cc3)c(C(N)=O)cn2)cc1 [Example 33, 6-(4-methoxyphenylamino)-4-(p-tolylamino)nicotinamide] | > 1000 | > 1000 | > 1000
COC[C@@H](Nc1cc(Nc2ccc(N3CCOCC3)cc2)ncc1C(N)=O)c1ccccc1 [Example 262, (S)-4-(2-methoxy-1-phenylethylamino)-6-(4-morpholinophenylamino)nicotinamide] | > 1000 | 10 to 100 | 100 to 1000
COc1ccc(Nc2cc(NCc3ncccn3)c(C(N)=O)cn2)cc1 [Example 300, 6-(4-methoxyphenylamino)-4-(pyrimidin-2-ylmethylamino)nicotinamide] | > 1000 | 100 to 1000 | > 1000
CN(C)C(=O)Cc1ccc(Nc2cc(NCc3ccccc3)c(C(N)=O)cn2)cc1 [Example 328, 4-(benzylamino)-6-(4-(2-(dimethylamino)-2-oxoethyl)phenylamino)nicotinamide] | 100 to 1000 | 1 to 10 | 100 to 1000
CC(=O)N1CCC[C@H](CNc2cc(Nc3ccc(C(=O)N(C)C)c(Cl)c3)ncc2C(N)=O)C1 [Example 442, (R)-4-((1-acetylpiperidin-3-yl)methylamino)-6-(3-chloro-4-(dimethylcarbamoyl)phenylamino)nicotinamide] | > 1000 | 10 to 100 | 100 to 1000
COc1ccc(Nc2cc(NCc3ccccc3)c(C(N)=O)cn2)cc1Cl [Example 332, 4-(benzylamino)-6-(3-chloro-4-methoxyphenylamino)nicotinamide] | > 1000 | 10 to 100 | > 1000
COc1ccc(Nc2cc(NC[C@H]3CCCN(C(C)=O)C3)c(C(N)=O)cn2)cc1 [Example 54] | > 1000 | 10 to 100 | 100 to 1000
NC(=O)c1cnc(Nc2ccc(-c3c[nH]cn3)cc2)cc1NCc1ccccc1 [Example 276, 6-(4-(1H-imidazol-4-yl)phenylamino)-4-(benzylamino)nicotinamide] | 100 to 1000 | 10 to 100 | 100 to 1000
CCS(=O)(=O)N1CCC(CNc2cc(Nc3ccc(C4CCOCC4)cc3)ncc2C(N)=O)CC1 [Example 160, 4-((1-(ethylsulfonyl)piperidin-4-yl)methylamino)-6-(4-(tetrahydro-2H-pyran-4-yl)phenylamino)nicotinamide] | > 1000 | > 1000 | > 1000
NC(=O)c1cnc(Nc2cccc(C3CCOCC3)c2)cc1NCc1ccccc1F [Example 152, 4-(2-fluorobenzylamino)-6-(3-(tetrahydro-2H-pyran-4-yl)phenylamino)nicotinamide] | 100 to 1000 | 1 to 10 | 10 to 100
COc1ccc(Nc2cc(NCC3CCCC3)c(C(N)=O)cn2)cc1 [Example 32, 4-(cyclopentylmethylamino)-6-(4-methoxyphenylamino)nicotinamide] | > 1000 | 100 to 1000 | > 1000
CS(=O)(=O)Cc1ccc(Nc2cc(NCc3cccc4[nH]ccc34)c(C(N)=O)cn2)cc1 [Example 348, 4-((1H-indol-4-yl)methylamino)-6-(4-(methylsulfonylmethyl)phenylamino)nicotinamide] | 1 to 10 | < 1 | 1 to 10
Cc1cc(Nc2cc(NCc3cccc(F)c3F)c(C(N)=O)cn2)ccc1C(=O)N1CCOCC1 [Example 455, 4-(2,3-difluorobenzylamino)-6-(3-methyl-4-(morpholine-4-carbonyl)phenylamino)nicotinamide] | 100 to 1000 | 1 to 10 | 10 to 100
NC(=O)c1cnc(Nc2ccc3ncsc3c2)cc1NCc1ccccc1 [Example 90, 6-(benzo[d]thiazol-6-ylamino)-4-(benzylamino)nicotinamide] | > 1000 | 10 to 100 | > 1000
CCC(=O)N1CCC(c2ccc(Nc3cc(NCC4CCOCC4)c(C(N)=O)cn3)cc2)CC1 [Example 144, 6-(4-(1-propionylpiperidin-4-yl)phenylamino)-4-((tetrahydro-2H-pyran-4-yl)methylamino)nicotinamide] | > 1000 | 10 to 100 | 100 to 1000
Cn1cc(CNc2cc(Nc3ccc(C4CCOCC4)cc3)ncc2C(N)=O)cn1 [Example 173, 4-((1-methyl-1H-pyrazol-4-yl)methylamino)-6-(4-(tetrahydro-2H-pyran-4-yl)phenylamino)nicotinamide] | > 1000 | 100 to 1000 | > 1000
NC(=O)c1cnc(Nc2ccc(F)c(C(=O)N3CCC3)c2)cc1NCc1ccccc1 [Example 439, 6-(3-(azetidine-1-carbonyl)-4-fluorophenylamino)-4-(benzylamino)nicotinamide] | 100 to 1000 | 10 to 100 | 100 to 1000
NC(=O)c1cnc(Nc2cccc(N3CCOCC3)c2)cc1NC1(c2ccccc2)CC1 [Example 128, 6-(3-morpholinophenylamino)-4-(1-phenylcyclopropylamino)-nicotinamide] | > 1000 | 10 to 100 | > 1000
CCC(=O)N1CCC[C@H](CNc2cc(Nc3ccc(OC)cc3)ncc2C(N)=O)C1 [Example 271, (R)-6-(4-methoxyphenylamino)-4-((1-propionylpiperidin-3-yl)methylamino)nicotinamide] | > 1000 | 10 to 100 | > 1000
NC(=O)c1cnc(Nc2cccc(C3CCOCC3)c2)cc1NCc1cccc(F)c1F [Example 205, 4-(2,3-difluorobenzylamino)-6-(3-(tetrahydro-2H-pyran-4-yl)phenylamino)nicotinamide] | 100 to 1000 | 1 to 10 | 10 to 100
NC(=O)c1cnc(Nc2cccc(C3CCOCC3)c2)cc1NC1CCOCC1 [Example 151, 6-(3-(tetrahydro-2H-pyran-4-yl)phenylamino)-4-(tetrahydro-2H-pyran-4-ylamino)nicotinamide] | 100 to 1000 | 100 to 1000 | 100 to 1000
